The results in this text go back to patent US20250161311A1, “SMALL MOLECULE DIRECTED URINARY BLADDER TISSUE REGENERATION” (Northwestern University, priority 2022, published 2025).

Where “and” joins values, the source holds several entries; their conditions need not be identical. Equal values may be shown once.

The test system of one series is rat bladders. As to the kind of experiment: Rat bladder urodynamic studies (UDS). The note with it: for bladder compliance: compliant >60%; for leak point pressure (LPP): normal rat ~40. Type of series: in vivo, nude rats. As for the experimental part:
SR1 Induces Bladder Tissue Regeneration in vivo—In the following in vivo studies, nude rats underwent an approximate 60-70% bladder cystectomy and were augmented with a POC scaffold and then: 1) instilled with saline (Saline); 2) instilled with 300 nM SR1 (SR1:1×/week for 2 weeks); or 3) seeded with human MSC/CD34+HSCs (Cell-Seeded). Animals were sacrificed 10 weeks post-augmentation. The inventors have developed, characterized, and successfully utilized CBBs (POC) in bladder regenerative settings over the last 10 years. The inventors' established human MSC/CD34+HSC seeded POC scaffold bladder augmentation model was utilized in this study to directly compare specific regenerative bladder biological metrics against SR1 treated animals to determine whether SR1 could be used in lieu of MSCs and CD34+HSCs for bladder tissue regeneration. Rat Bladder Urodynamic Studies (UDS) Rat bladders were filled with saline until a bladder contraction occurred (pre- and 10 weeks post-augmentation). Bladder pressures rose during the filling until bladder contractions occurred at intravesical pressures of 25-40 cm H2O. Saline instilled animals led to a slight decrease in voiding pressures and decreased bladder compliance (FIG. 4A). SR1 instilled animals led to a decrease in intravesical pressures during voiding from 40 to 25 cm H2O (pre-augmentation to post-augmentation, respectively) with increased bladder compliance. […] With regards to leak point pressures (LPP); Saline, SR1 and Cell-Seeded groups (pre/post aug) were: 39.49±1.35/46.48±2.42; 39.66±0.81/37.1±1.47; 38.6±1.41/35.5±2.40 cm H2O, respectively. Compliance values for the same groups were: 68.77±2.49/39.3±8.55; 69.57±1.95/72.38±3.13; 46.23±12.9/89.59±1.32 percent, respectively. Normal LPP for rat is ˜40 cm H2O and compliant bladders are defined at >60%. Percent bladder capacity at 10 weeks was also measured (FIG. 4B).

Series [1] relates to regenerated bladder tissue. In words: Regenerated bladder tissue muscle content (Trichrome) and urothelium width after cystectomy and POC scaffold augmentation. Type of series: in vivo, nude rats. The note with it: 10 weeks post-augmentation, means±SE. The method, then:
SR1 Induces Bladder Tissue Regeneration in vivo—In the following in vivo studies, nude rats underwent an approximate 60-70% bladder cystectomy and were augmented with a POC scaffold and then: 1) instilled with saline (Saline); 2) instilled with 300 nM SR1 (SR1:1×/week for 2 weeks); or 3) seeded with human MSC/CD34+HSCs (Cell-Seeded). Animals were sacrificed 10 weeks post-augmentation. The inventors have developed, characterized, and successfully utilized CBBs (POC) in bladder regenerative settings over the last 10 years. The inventors' established human MSC/CD34+HSC seeded POC scaffold bladder augmentation model was utilized in this study to directly compare specific regenerative bladder biological metrics against SR1 treated animals to determine whether SR1 could be used in lieu of MSCs and CD34+HSCs for bladder tissue regeneration. Muscle to collagen ratios are indicative of overall bladder tissue regeneration. […] Normal bladder tissue has an approximate 1:1 to muscle to collagen. There was no statistical difference with regards to muscle regeneration between the two groups. […] This included abnormal voiding, incontinence and subsequent infection, bladder distension, ureteral or renal dysfunction, and […]. […]

The subject of the next series is primary human UCs. As to the kind of experiment: SR1 treatment of primary human urothelial cells (UCs) in vitro, AhR/Ki-67 co-staining and manual counting. Type of series: cell-based. The note with it: for peak number of nAhR+UCs: D7, means±SE. The method, then:
SR1 Treatment of UCs in vitro Equivalent numbers of primary human UCs were treated once with SR1 (150 nM, 200 nM, 250 nM, or untreated) and allowed to grow in culture for 13 days. […] An assortment of organ specific stem cells initially maintain a high nucleus/cytoplasm ratio which gradually decreases as the cell differentiates.

Series [2] is described as follows: In vitro release profile of SR1 coupled to POC scaffolds, measured by spectroscopy. The class given is physicochemical. The method, then:
SR1 was coupled to POC (poly 1,8 octane diol co-citrate) scaffolds and its in vitro release profile was measured by spectroscopy, based upon the aromatic ring structures contained within SR1 (FIG. 5A). […] For pilot in vivo studies, rats underwent an ˜70% cystectomy followed by augmentation with POC or POC/SR1 (1 mM SR1). POC animals were instilled with saline once at the beginning of the study and all animals were euthanized at 4 weeks post-augmentation. […] Therefore, the inventor concludes that coupling of SR1 to a scaffold, e.g., a solid support, is an effective means of delivery of SR1 to subjects in need thereof.

Series [3] concerns regenerated bladder tissue. As to the kind of experiment: Bladder tissue vascularization and peripheral nerve regeneration in vivo (IF staining). Set-up: species or system nude rats. The note with it: 10 weeks post-augmentation. As for the experimental part: SR1 Induces Bladder Tissue Regeneration in vivo—In the following in vivo studies, nude rats underwent an approximate 60-70% bladder cystectomy and were augmented with a POC scaffold and then: 1) instilled with saline (Saline); 2) instilled with 300 nM SR1 (SR1:1×/week for 2 weeks); or 3) seeded with human MSC/CD34+HSCs (Cell-Seeded). Animals were sacrificed 10 weeks post-augmentation. The inventors have developed, characterized, and successfully utilized CBBs (POC) in bladder regenerative settings over the last 10 years. The inventors' established human MSC/CD34+HSC seeded POC scaffold bladder augmentation model was utilized in this study to directly compare specific regenerative bladder biological metrics against SR1 treated animals to determine whether SR1 could be used in lieu of MSCs and CD34+HSCs for bladder tissue regeneration. Bladder instillation of SR1 promoted vascularization of augmented bladders along the periphery and core of grafts. […] The level of tissue vascularization may be increased by changing the concentration of SR1 instilled and/or the dosing regimen.

Turning to `CC(C)n1cnc2c(NCCc3ccc(O)cc3)nc(-c3csc4ccccc34)nc21` [SR1, stemregenin 1], the “intravesical pressure during voiding” value was found to be 25 cm H2O with rat bladders (10 weeks post-augmentation) and 40 cm H2O in the series with rat bladders (pre-augmentation (baseline)). For the same compound, the bladder compliance in the series with rat bladders (10 weeks post-augmentation) came out at 72.38±3.13%; with rat bladders (pre-augmentation (baseline)), 69.57±1.95%. The “leak point pressure (LPP)” value with rat bladders (10 weeks post-augmentation) is listed as 37.1±1.47 cm H2O; with rat bladders (pre-augmentation (baseline)), 39.66±0.81 cm H2O. Also, in series [1] (SR1 300 nM instilled 1×/week for 2 weeks), the “muscle content of regenerated bladder tissue” value was ~50% and 47.00±1.81%. For the same compound, the urothelium width in series [1] (unmanipulated rats 50-70 μm) is listed as 52.98±2.55 μm. Also, the “peak number of nAhR+UCs” value in the series on primary human UCs (150 nM SR1, treated once) is on record as 159.75±8.44 cells; in the series with primary human UCs (200 nM SR1, treated once), 310.75±28.73 cells; in the series on primary human UCs (250 nM SR1, treated once), 342.75±20.97 cells. Further, the “expansion of nAhR+/Ki-67+UCs compared to untreated” value in the series with primary human UCs (D7) is on record as roughly 6 ×. Besides, the “UCs with higher nucleus/cytoplasm ratios” value in the series on primary human UCs (nAhR+UCs, D7, 200 nM) is on record as “modest increase”. The “release profile of SR1 from POC scaffolds” value in series [2] (1 or 2 mM starting concentrations, over 30 days, compared to POC scaffolds in saline) is “gradual release”. In addition, the “cumulative release of SR1 from POC scaffolds, fold higher with 2 mM SR1” value in series [2] (30 day time point, 2 mM versus 1 mM starting concentration) is given as roughly 1.4 ×. The “vascularization of regenerated bladder tissue” value in series [3] (means±SE) was 3.60±0.24%. The “peripheral nerve regeneration (βIII tubulin IF staining)” value in series [3] (core and throughout the graft) is “abundance of peripheral nerve regeneration”.
